The values below come from a melting point compilation (Tetko et al.; mined from patent text by program, amines drawn as free bases though some values may be those of a salt).

As usually defined, the melting point is the temperature, or range, at which the solid turns liquid.

For `C=CCCCCCCCCCOc1ccc(-c2ccc(O)cc2)cc1`, the melting point fell in the range of 135 to 136 °C.

Compound `Cc1csn(-c2ccc(Cl)cc2)c1=O` displayed a melting point of 157 to 159 °C.

`O=c1oc2ccccc2cc1S(=O)(=O)Cc1ccc(Cl)cc1` displayed a melting point of 195 to 196 °C.

For `CCOC(=O)c1cn2c(n1)SCCC2`, the melting point is 99 to 100 °C.

`COc1ccc2cc([C@H](C)C(=O)OCCS(=O)CCOC(=O)OC(C)O[N+](=O)[O-])ccc2c1` (stereo partly drawn) came in with a melting point of 112 to 115 °C.

Regarding `C/C(=C\C(=O)NC1CC1)c1cccc(F)c1`, the melting point turned out to be 119 °C.

As to `CC(C)=CCN1c2nc(Cl)ccc2NC(=O)[C@@H]1C`, the melting point fell in the range of 136 to 137 °C.

`CN(C)Cc1ccccc1-c1ccc(C(=O)N2Cc3ccc(C(=O)NCc4cccnc4)n3Cc3ccccc32)cc1` gave a melting point of 95 to 104 °C.

With `CCCCCCCCCCNC(=O)Nc1ccccc1C(=O)NC1CCN(C(c2ccccc2)c2ccccc2)CC1`, the melting point is 204 to 206 °C.

In turn, `CC(=O)C(C)S(=O)(=O)c1ccc(C=C(C)c2ccc3c(c2)C(C)(C)CCC3(C)C)cc1` (stereo not drawn) registered a melting point of 139 to 141 °C.

As for `CC(C)=CCN1Cc2c(Cl)ccc([N+](=O)[O-])c2NC[C@@H]1C`, the melting point lay within 60 to 62 °C.

`CCCCN(Cc1ccc(-c2ccccc2-c2nnn[nH]2)cc1)c1ncc(C(=O)OCC)s1` registered a melting point of 65 to 70 °C.

For `Cc1cccc2c1C(=O)N(C1CCC(=O)NC1=O)C2=O` (stereo not drawn), the melting point is 290 to 292 °C.

In turn, `CCOC(=O)Cc1nn(Cc2ccc(Br)c(Cl)c2)c(=O)c2ccccc12` yielded a melting point of 142 to 145 °C.

For `Cc1cccc(C)c1NC(=O)c1ccc(S(C)=O)cc1` (stereo not drawn), the melting point was in the range of 144 to 146 °C.

With `O=C(NC1CCCCC1)c1c(O)c2cc(Cl)ccc2n(Cc2ccccc2)c1=O`, the melting point stood at 158 °C.

For `Cc1c(C(F)(F)F)noc1NS(=O)(=O)c1ccccc1`, the melting point was in the range of 99.5 to 100 °C.

Compound `CN(C)C=CC(=O)c1cccc(N(C)C(=O)C2CCC2)c1` displayed a melting point of 117 to 119 °C.

`CCN(CC)C1CCN(c2cccc(-c3cnn4c(N)c(-c5ccc(F)cc5)c(C)nc34)c2)CC1`: the melting point fell in the range of 208 to 210 °C.

`O=C1CC=C(c2c[nH]c3cc([N+](=O)[O-])ccc23)CC1` registered a melting point of 175 to 177 °C.

The compound `CN(c1ccc(Cl)nc1)S(C)(=O)=O` returned a melting point of 87 to 90 °C.

Turning to `Cc1cccnc1NC(=O)CN1C[C@@H](C)N(c2ncnc3sccc23)[C@@H](C)C1`, the melting point lay within 157 to 159 °C.

Consider `CC(Oc1ncn(-c2cccc(F)c2)n1)C(N)=O` (stereo not drawn), for which the melting point lay within 156 to 158 °C.

Compound `Nc1ccc(C#Cc2c(F)c(F)nc(F)c2F)cc1` came in with a melting point of 164 to 165 °C.

As to `CCN1CCN(c2cc(-c3ccccc3)c3ccccc3n2)CC1`, the melting point was 87 to 88 °C.

Compound `CCCCc1nc(Cl)c(CC=CO)n1Cc1ccc(NC(=O)c2ccccc2C(=O)O)cc1` yielded a melting point of 150 to 151 °C.

The compound `CCCC(=O)c1cnc2c(OCC)nccc2c1Nc1ccccc1C` showed a melting point of 112 °C.

On to `COc1cc(OC)cc(N2CCN(C(=O)N(CC3CC3)c3cc4ccccc4nc3OC)CC2)c1`, for which the melting point lay within 118 to 120 °C.

Turning to `CC1CC(=O)c2cc(O)cnc2C1` (stereo not drawn), the melting point was in the range of 210 to 212 °C.

Compound `CC#CC(C)(C)NC(=O)C(CC)Oc1cncc(C#N)c1` (stereo not drawn) showed a melting point of 112 to 113 °C.

Regarding `CN(C)CCOc1ccc(N(CCN(C)C)c2nccc(-c3ccncc3)n2)cc1`, the melting point lay within 87 to 91 °C.

For `CCOc1ccc(-c2nc(-c3ccc(OC4OC(CO)C(O)C(O)C4O)cc3)cs2)cc1OCC` (stereo not drawn), the melting point is 138 to 140 °C.

Regarding `CN(Cc1ccc(NC(=O)C2=Cc3cc(-c4ccc(C#N)cc4)ccc3S(=O)(=O)CC2)cc1)C1CCOCC1`, the melting point fell in the range of 233 to 236 °C.

The compound `CN(C)c1ccc(C(=O)OC2CCN(Cc3ccccc3)CC2)cc1` showed a melting point of 103 °C.

Consider `CN1C(=O)[C@@](NC(=O)Nc2cccc(N(C)c3nnn[nH]3)c2)(C2CCCCC2)N=Cc2ccccc21`, for which the melting point was 222 to 225 °C.

`CCc1nc2c(N)nc(C)c(C)c2n1CCCC(N)=O` showed a melting point of 228 to 230 °C.

`CCCc1c(OCC(O)COc2ccc(CC(=O)O)cc2Br)ccc(C(C)=O)c1O` (stereo not drawn) yielded a melting point of 84 °C.

The compound `O=C1NC(=O)C(Cc2ccc(OCC3CN(c4ccccn4)CCO3)cc2)S1` (stereo not drawn) gave a melting point of 139 to 142 °C.

`CCCCn1c2ccc(C#N)cc2c2cc(C#N)ccc21` displayed a melting point of 215 to 217 °C.

`Cc1nc(-c2cnc3[nH]cc(C(=O)N[C@@H](C(=O)N4CC(C#N)C4)C4CC4)c3n2)cn1CC(F)(F)F` came in with a melting point of 255 to 256 °C.

On to `NC(CC(=O)O)c1ccc(Br)cc1` (stereo not drawn), for which the melting point was found to be 234 °C.

`COc1ccc(C2=NN(c3ccc(C(=O)O)cc3)C(=O)C(C)(C)C2)cc1OC` came in with a melting point of 196 to 198 °C.

`Cc1nc(Cn2nc(C(F)(F)F)cc2C(F)(F)F)ccc1NC(=O)c1cccc(Cl)c1C(=O)N[C@@H](C)CS(C)=O` (stereo partly drawn): the melting point came to 183 °C.

Compound `Cc1nn(-c2c(Cl)cc(C(F)(F)F)cc2Cl)nc1C#N` returned a melting point of 53 °C.

In the case of `O=C(O)CCC(c1ccccc1)c1ccccc1F` (stereo not drawn), the melting point was determined as 105 °C.

In the case of `Sc1nccn1Cc1cccs1`, the melting point was in the range of 130 to 131 °C.

For the compound `CCC(=O)Nc1c(C(O)(C(F)(F)F)C(F)(F)F)ccc2ccccc12`, the melting point lay within 118 to 119 °C.

Regarding `Cc1ccc(-c2ccc(C(=O)Nc3cc4ncc(CN5CCCC5)cc4cc3C)cc2F)cc1`, the melting point lay in the range of 175 to 178 °C.

In turn, `COc1nc2cc(Cl)c(Cl)cc2nc1OC` returned a melting point of 144 to 146 °C.

`CCCCc1sc2ccccc2c1C(=O)c1ccc(NS(=O)(=O)c2ccc(C)cc2)cc1` came in with a melting point of 128 °C.

In turn, `COc1ccc(Cl)c2oc(-c3ccc(S(N)(=O)=O)cc3)c(-c3ccc(F)cc3)c(=O)c12` returned a melting point of 279 to 281 °C.

The compound `Cn1nc(Sc2ccc(C(=O)O)c(Cl)c2)n(C)c1=O` gave a melting point of 222 °C.

Compound `O=C(CC(F)(F)F)NC[C@H]1CN(c2ccc3c(c2)CCCc2cnoc2-3)C(=O)O1` gave a melting point of 150 to 186 °C.

`CC1CNc2c(C#N)cnn2C1c1cc(Cl)ccc1Cl` (stereo not drawn) had a melting point of 184 to 185 °C.

For the compound `CCCCC1(CCCC)CS(=O)(=O)c2ccc(N(C)C)cc2C(c2ccc(OCc3cccnc3CCC(=O)O)cc2)C1O` (stereo not drawn), the melting point lay within 105 to 107 °C.

In turn, `O=C(NO)c1ccc(I)cc1O` had a melting point of 195 to 196 °C.

As to `CCN(C)C(=O)C1=CC(C)(C)Oc2ccc([N+](=O)[O-])cc21`, the melting point fell in the range of 121 to 124 °C.

As to `Clc1cccc(Cl)c1C1CCN(Cc2[nH]c3ccccc3c2-c2ccccc2)CC1`, the melting point is 162 to 164 °C.

In turn, `O=C(Cn1ccnc1)c1ccc(F)cc1F` gave a melting point of 125 °C.

Turning to `CC(N)c1nc2cccc(Cl)c2c(=O)n1-c1cc(F)cc(F)c1` (stereo not drawn), the melting point fell in the range of 200 to 202 °C.

In turn, `CN(C)c1cccc(C(=O)N2CCN(CCc3ccc(Cl)cc3)CC2)c1` displayed a melting point of 110 to 112 °C.

In turn, `COc1ccc2c(c1)C=Cn1c(nnc1OC)C2` registered a melting point of 185 to 186 °C.

Take `Clc1nc(-c2ccco2)nc2ccccc12`: the melting point was in the range of 116 to 118 °C.
